Ends that are not written are not given here.
Legend:
[1] = system: THP-1 cells; assay: CD86 and CD54 expression in THP-1 cells (flow cytometry, RFI); type: cell-based, human; conditions: overnight culture, relative fluorescence intensity
Description: THP-1 cells were seeded at a density of 2.0×10^5 cells/mL in 50 mL of RPMI1640 medium containing 10% FBS and 0.05 mM mercaptoethanol in a 75-cm^2 flask, and precultured for 48 hours.
The precultured THP-1 cells were harvested by centrifugation and suspended at 2.0×10^6 cells/mL in RPMI1640 medium containing 10% FBS and 0.05 mM mercaptoethanol, and the cell suspension was added to a 24-well plate at 500 μL/well. Test peptides were separately dissolved in the same medium as above, and 500 μL of each of the solutions was added to separate wells containing the cell suspension.
After overnight culture, the cells were harvested by centrifugation and washed twice with PBS containing 0.1% BSA (FACS buffer). The cells were then dispersed in 600 μL of FACS buffer containing 0.01% human γ-globulin solution (Sigma, G2388), and incubated at 4° C. for 10 minutes for blocking of Fc receptors.
After that, the cell suspension was divided into three 180-μL aliquots in 1.5-mL tubes, the tubes were centrifuged, and the cell pellets were prepared for the reaction with antibodies. To the cell pellets, FITC-labeled antibody solutions separately diluted to appropriate concentrations in FACS buffer were added in a volume of 50 μL, and incubation was performed at 4° C. for 30 minutes. The antibodies used were CD86 antibody (Pharmingen; Cat#555657), CD54 antibody (Dako; Cat# F7143) and isotype control (Mouse IgG) antibody (Dako; Cat#X0927). After the 30-minute incubation, the cells were harvested by centrifugation and washed twice with FACS buffer. The cells harvested by centrifugation were dispersed in 200 μL of FACS buffer containing 0.625 μg/mL propidium iodide, and the expression levels of the cell surface antigens on 1×10^4 viable cells were measured by flow cytometry. Forward and side scatter gating was not used for the analysis, and the relative fluorescence intensity (RFI) was calculated from the measured mean fluorescence intensities (MFI) by the following formula. […]
When the viability of the non-treated control cells (vehicle treatment cells) was 90% or more, the test was considered valid. In the case where the cell viability at a particular sample concentration used in the test was lower than 50%, the data of the CD54 level at the concentration was excluded from the evaluation.

[2] = system: Human hair follicle dermal papilla cells; assay: Production of growth factors (KGF, HGF, VEGF) by hair follicle dermal papilla cells (ELISA); type: cell-based; conditions: 5 days
Description: Human hair follicle dermal papilla cells in DMEM medium containing 10% FBS were seeded at 3×10^4 cells/well on a 24-well plate and cultured in a CO2 incubator overnight. On the following day, the medium was removed, test peptide solutions in DMEM medium containing 1% FBS were added to the plate, and the cells were cultured in a CO2 incubator for 5 days. The culture supernatant was harvested, and the KGF, HGF and VEGF concentrations in the culture supernatant were measured by ELISA.
In this experiment, OSK-1 and AAP-11 were used as the test peptides, and the concentrations of KGF, HGF and VEGF were measured in the same manner as in Example 9.

| Substance | expression of CD54 [1] | expression of CD86 [1] | production of the growth factors (KGF, HGF and VEGF concentrations in the culture supernatant) [2] |
| --- | --- | --- | --- |
| ELKLIFLHRLKRLRKR [AAP-2, C-terminal LKRK of OSK-1 deleted] | considerably less active | considerably less active | less effective than OSK-1 |
| HRLKRLRKRLKRK [AAP-12, seven N-terminal amino acids of OSK-1 deleted] | considerably less active than OSK-1 | considerably less active than OSK-1 |  |
| ELKLIFLHRLKRLR [AAP-3, C-terminal KRLKRK of OSK-1 deleted] | considerably less active | considerably less active | less effective than OSK-1 |
| LIFLHRLKRLRKRL [AAP-6] | no considerable reduction in the activity was observed | no considerable reduction in the activity was observed |  |
| MLKLIFLHRLKRMRKRLdKRK (MLKLIFLHRLKRMRKRLKRK; not fully specified (residues 17, 18)) [SR-07, reference compound] | OSK-1 was more highly active for inducing CD54 expression than SR-07 and SR-08 |  |  |
| FLHRLKRLRKRL [AAP-11] | no considerable reduction in the activity was observed | no considerable reduction in the activity was observed | promoted the production of the indicated growth factors in a concentration dependent manner |
| LKLIFLHRLKRMRKRLdKRK (LKLIFLHRLKRMRKRLKRK; not fully specified (residues 16, 17)) [SR-08, reference compound] | OSK-1 was more highly active for inducing CD54 expression than SR-07 and SR-08 |  |  |

From US10112978B2, “Peptide and use thereof” (OSAKA UNIVERSITY, priority 2014, dated 2018)
